Reference: US20260274814A1, “THIENYL COMPOUNDS FOR THE TREATMENT OF A CENTRAL NERVOUS SYSTEM DISEASE OR DISORDER” (Coreterra Therapeutics, Inc., priority 2023, published 2026)
Counter-ions that a name gives are not always drawn.

Tested on: mice
Assay: Neuropharmacological Assay (SmartCube): automated behavioral signature of compound-treated mice compared with a database of reference drug classes
Format: in vivo
Conditions: for MED (minimal effective dose) / minimal effective dose: dose having 45% or more total activity in SmartCube, i.p., if only one dose was tested, that dose is shown; for AG / AN / CE / HL / MS / PS / SH / UK / AD / AP / AX: probability that activity matches this class of agents, 3.0 mg/kg i.p., 15 min before test; for minimal effective dose: Mus musculus, ip, read-out: MED (minimal effective dose)
Description: Neurosci. 2011 Sep. 9; 5: 103 (doi: 10.3389/fnins.2011.00103) (“Roberds”). As reported in Roberds, because psychiatric diseases generally result from disorders of cell-cell communication or circuitry, intact systems are useful in detecting improvement in disease-relevant endpoints. These endpoints are typically behavioral in nature, often requiring human observation and interpretation. To facilitate testing of multiple compounds for behavioral effects relevant to psychiatric disease, PsychoGenics, Inc. (Tarrytown, NY, “PGI”) developed SmartCube™ an automated system in which behaviors of compound-treated mice are captured by digital video and analyzed with computer algorithms. (D. Brunner et al. Drug Discov. Today 2002, 7:S107-S112). PGI Analytical Systems uses data from SmartCube™ to compare the behavioral signature of a test compound to a database of behavioral signatures obtained using a large set of diverse reference compounds. (The composition of the database as well as validation of the method is further described in Roberds). In this way, the neuropharmacological effects of a test compound can be predicted by similarity to major classes of compounds, such as antipsychotics, anxiolytics and antidepressants.
The SmartCube™ system produces an activity signature indicating the probability that the activity of the test compound at the administered dose matches a given class of neuropharmacological agents. (See, e.g., Roberds, FIGS. 2 and 3). The test compound is simultaneously compared against multiple classes of agents; thus, a separate probability is generated for each behavioral effect measured (e.g., anxiolytic activity, analgesic activity, etc.). In table 2 below, these probabilities are reported for each behavioral effect measured as described in Table 1 below.
Provided compounds were dissolved in a mixture of Pharmasolve™ (N-methyl-2-pyrrolidone), polyethylene glycol and propylene glycol, and were injected i.p. 15 min. before the behavioral test. For each compound, injections were administered at 3 different doses. For each behavioral effect measured, results for the 3.0 mg/kg dose are presented. The potency of many of the compounds in the table was also determined in the SmartCube™ system. Test compounds were routinely examined at dose levels of 0.3, 1, 3 and 10 mg per kg (mpk), although the dose range was increased or decreased, if necessary, to obtain a full dose response curve. A compound's minimal effective dose (MED) is a measure of the compound's potency. The MED was defined as the dose (in mpk) having 45% or more total activity in SmartCube. If only one dose was tested, that dose is shown in the MED column of Table 2 even though the dose is not known to be the MED.

SMILES	MED (minimal effective dose) (hydrochloride) [mpk]	AG	AN	CE	HL	MS	PS	SH	UK	AD (hydrochloride, 3 mg/kg)	AP (hydrochloride, 3 mg/kg)	AX (hydrochloride, 3 mg/kg)	minimal effective dose [mg/kg]	AP	AX	AD	further results
CNC1CCc2cc(F)sc2C1 (single isomer, unassigned) [Compound 80, 2-fluoro-N-methyl-4,5,6,7-tetrahydrobenzothiophen-6-amine hydrochloride]	3	ND (^ <4%)	ND (^ <4%)	ND (^ <4%)	ND (^ <4%)	ND (^ <4%)	ND (^ <4%)	ND (^ <4%)	ND (^ <4%)	++ (≥24%)	+ (≥4%)	+ (≥4%)	–	–	–	–	–
CNC1CCc2cc(F)sc2C1 (single isomer, unassigned) [Compound 81, 2-fluoro-N-methyl-4,5,6,7-tetrahydrobenzothiophen-6-amine hydrochloride]	1	ND (^ <4%)	ND (^ <4%)	ND (^ <4%)	ND (^ <4%)	ND (^ <4%)	ND (^ <4%)	ND (^ <4%)	ND (^ <4%)	ND (^ <4%)	++++ (≥74%)	ND (^ <4%)	–	–	–	–	–
CNC1CCc2c(F)csc2C1 (single isomer, unassigned) [Compound 83, 3-fluoro-N-methyl-4,5,6,7-tetrahydrobenzothiophen-6-amine hydrochloride]	1	ND (^ <4%)	ND (^ <4%)	–	ND (^ <4%)	ND (^ <4%)	ND (^ <4%)	–	ND (^ <4%)	ND (^ <4%)	+++ (≥49%)	+ (≥4%)	–	–	–	–	CE (hydrochloride, 3 mg/kg): + (≥4%); SH (hydrochloride, 3 mg/kg): ND (^ <4%)
CNC1CCc2c(F)csc2C1 (single isomer, unassigned) [Compound 84, 3-fluoro-N-methyl-4,5,6,7-tetrahydrobenzothiophen-6-amine hydrochloride]	0.1	ND (^ <4%)	ND (^ <4%)	–	ND (^ <4%)	ND (^ <4%)	ND (^ <4%)	–	ND (^ <4%)	+ (≥4%)	ND (^ <4%)	ND (^ <4%)	–	–	–	–	CE (hydrochloride, 3 mg/kg): ND (^ <4%); SH (hydrochloride, 3 mg/kg): +++ (≥49%)
CC1(N)CCc2ccsc2C1 (single isomer, unassigned) [Compound 111, 6-methyl-5,7-dihydro-4H-benzothiophen-6-amine hydrochloride]	–	ND (^ <4%)	ND (^ <4%)	ND (^ <4%)	ND (^ <4%)	ND (^ <4%)	–	ND (^ <4%)	ND (^ <4%)	++ (≥24%)	–	++ (≥24%)	3	ND (^ <4%)	–	–	PS (hydrochloride, 3 mg/kg): + (≥4%)
CC1(N)CCc2ccsc2C1 (single isomer, unassigned) [Compound 112, 6-methyl-5,7-dihydro-4H-benzothiophen-6-amine hydrochloride]	>3	ND (^ <4%)	ND (^ <4%)	ND (^ <4%)	ND (^ <4%)	ND (^ <4%)	–	ND (^ <4%)	ND (^ <4%)	+ (≥4%)	–	+ (≥4%)	–	ND (^ <4%)	–	–	PS (hydrochloride, 3 mg/kg): ND (^ <4%)
CCc1scc2c1CCC(NC)C2 (single isomer, unassigned) [Compound 113, 1-ethyl-N-methyl-4,5,6,7-tetrahydro-2-benzothiophen-5-amine hydrochloride]	0.3	ND (^ <4%)	ND (^ <4%)	ND (^ <4%)	ND (^ <4%)	ND (^ <4%)	ND (^ <4%)	ND (^ <4%)	ND (^ <4%)	+ (≥4%)	++++ (≥74%)	–	–	–	ND (^ <4%)	–	–
CCc1scc2c1CCC(NC)C2 (single isomer, unassigned) [Compound 114, 1-ethyl-N-methyl-4,5,6,7-tetrahydro-2-benzothiophen-5-amine hydrochloride]	3	ND (^ <4%)	ND (^ <4%)	ND (^ <4%)	ND (^ <4%)	ND (^ <4%)	ND (^ <4%)	ND (^ <4%)	ND (^ <4%)	+++ (≥49%)	+ (≥4%)	–	–	–	ND (^ <4%)	–	–
CCc1scc2c1CC(NC)CC2 (single isomer, unassigned) [Compound 115, 3-ethyl-N-methyl-4,5,6,7-tetrahydro-2-benzothiophen-5-amine hydrochloride]	–	ND (^ <4%)	ND (^ <4%)	ND (^ <4%)	ND (^ <4%)	ND (^ <4%)	ND (^ <4%)	ND (^ <4%)	ND (^ <4%)	–	++++ (≥74%)	–	3	–	ND (^ <4%)	ND (^ <4%)	–
CCc1scc2c1CC(NC)CC2 (single isomer, unassigned) [Compound 116, 3-ethyl-N-methyl-4,5,6,7-tetrahydro-2-benzothiophen-5-amine hydrochloride]	<3	ND (^ <4%)	ND (^ <4%)	ND (^ <4%)	ND (^ <4%)	ND (^ <4%)	ND (^ <4%)	ND (^ <4%)	ND (^ <4%)	–	ND (^ <4%)	–	–	–	ND (^ <4%)	ND (^ <4%)	–
CCc1sc(CC)c2c1CCC(NC)C2 (single isomer, unassigned) [Compound 117, 1,3-diethyl-N-methyl-4,5,6,7-tetrahydro-2-benzothiophen-5-amine hydrochloride]	–	ND (^ <4%)	ND (^ <4%)	ND (^ <4%)	ND (^ <4%)	ND (^ <4%)	ND (^ <4%)	ND (^ <4%)	–	–	–	–	> 3	ND (^ <4%)	ND (^ <4%)	ND (^ <4%)	UK (hydrochloride, 3 mg/kg): ND (^ <4%)
CCc1sc(CC)c2c1CCC(NC)C2 (single isomer, unassigned) [Compound 118, 1,3-diethyl-N-methyl-4,5,6,7-tetrahydro-2-benzothiophen-5-amine hydrochloride]	–	ND (^ <4%)	ND (^ <4%)	ND (^ <4%)	ND (^ <4%)	ND (^ <4%)	ND (^ <4%)	ND (^ <4%)	–	–	–	–	–	ND (^ <4%)	ND (^ <4%)	ND (^ <4%)	MED (minimal effective dose): >3 mpk; UK (hydrochloride, 3 mg/kg): + (≥4%)
CN(C)C1(C)CCc2ccsc2C1 (single isomer, unassigned) [Compound 119, N, N, 6-trimethyl-5,7-dihydro-4H-benzothiophen-6-amine hydrochloride]	–	ND (^ <4%)	ND (^ <4%)	ND (^ <4%)	ND (^ <4%)	ND (^ <4%)	ND (^ <4%)	ND (^ <4%)	ND (^ <4%)	–	–	–	3	ND (^ <4%)	++++ (≥74%)	ND (^ <4%)	–
